Measured values from PubChem BioAssay (NCI).
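48-hour exposure; five concentrations; linearly interpolated endpoints. At the GI50, growth is halved. TGI is the concentration that stops growth completely.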

How the values were obtained:
Test in all cases: inhibition of tumour cell growth, NCI panel, 48 h
SF-539 CNS = system: SF-539 CNS
CAKI-1 renal = system: CAKI-1 renal
NCI-H460 lung = system: NCI-H460 lung
DU-145 prostate = system: DU-145 prostate
MDA-MB-231 breast = system: MDA-MB-231 breast
SK-MEL-5 melanoma = system: SK-MEL-5 melanoma
MDA-N = system: MDA-N
HCT-116 colon = system: HCT-116 colon
NCI-H226 lung = system: NCI-H226 lung
OVCAR-3 ovarian = system: OVCAR-3 ovarian
UACC-257 melanoma = system: UACC-257 melanoma
786-0 renal = system: 786-0 renal
PC-3 prostate = system: PC-3 prostate

SMILES | TGI (SF-539 CNS) [µM] | TGI (CAKI-1 renal) [µM] | TGI (NCI-H460 lung) [µM] | TGI (DU-145 prostate) [µM] | TGI (MDA-MB-231 breast) [µM] | TGI (SK-MEL-5 melanoma) [µM] | TGI (MDA-N) [µM] | TGI (HCT-116 colon) [µM] | TGI (NCI-H226 lung) [µM] | TGI (OVCAR-3 ovarian) [µM] | TGI (UACC-257 melanoma) [µM] | TGI (786-0 renal) [µM] | TGI (PC-3 prostate) [µM] | GI50 (CAKI-1 renal) [µM] | GI50 (NCI-H460 lung) [µM] | GI50 (DU-145 prostate) [µM] | GI50 (SK-MEL-5 melanoma) [µM] | GI50 (MDA-N) [µM] | GI50 (UACC-257 melanoma) [µM] | GI50 (PC-3 prostate) [µM]
C=C1C2CCC3C4(C)CCCC(C)(C(=O)O)C4CCC3(C2)C1OC(=O)/C(C)=C/C (centres undefined) | 55.1 | > 100 | > 100 | > 100 | 46.9 | 75.6 | 68.2 | > 100 | > 100 | 41 | > 100 | > 100 | > 100 | – | – | – | – | – | – | –
FC1(F)ON2CCc3ccccc3C2[C@H]1c1ccccc1 (some centres undefined) | > 100 | > 100 | > 100 | > 100 | > 100 | > 100 | > 100 | > 100 | > 100 | > 100 | > 100 | 96.7 | > 100 | > 100 | > 100 | > 100 | > 100 | > 100 | > 100 | > 100
C#C[C@]1(O)CC[C@H]2[C@@H]3CCC4=C/C(=N\OCCN5CCCCC5)CC[C@]4(C)[C@H]3CC[C@@]21C | 15.5 | 20.5 | 27.4 | 23.1 | 29 | 6.19 | 4.21 | 22.2 | 39.5 | 16.4 | 12.8 | 14.9 | 17.3 | – | – | – | – | – | – | –
Nc1nc(Cl)cc(NCC2(CCO)CCC2)n1 | > 100 | > 100 | > 100 | > 100 | > 100 | > 100 | > 100 | > 100 | > 100 | > 100 | > 100 | > 100 | > 100 | – | – | – | – | – | – | –
Cn1c(-c2ccco2)ccc1-c1ccc(C=O)o1 | 48.8 | 55.2 | > 100 | > 100 | > 100 | > 100 | > 100 | 53.1 | > 100 | > 100 | > 100 | > 100 | > 100 | – | – | – | – | – | – | –
C[C@H](Nc1nc(N)c(N=O)c(=O)n1C)C(=O)O | > 10 | > 10 | > 10 | > 10 | > 10 | > 10 | > 10 | > 10 | > 10 | > 10 | > 10 | > 10 | > 10 | – | – | – | – | – | – | –
Cc1ccc(S(=O)(=O)n2cc(C=O)c(-c3cn(S(=O)(=O)c4ccc(C)cc4)cc3-c3cn(S(=O)(=O)c4ccc(C)cc4)cc3C=O)c2)cc1 | 76.4 | > 100 | > 100 | > 100 | > 100 | > 100 | > 100 | > 100 | > 100 | > 100 | > 100 | > 100 | > 100 | – | – | – | – | – | – | –
CC1OC(OC2C(O)COC(OC3C(C)OC(OC4C(OC(=O)[C@]56CCC(C)(C)C[C@@H]5C5=CCC7[C@@]8(C)C[C@H](O)[C@H](OC9OC(CO)C(O)C(O)C9O)[C@@](C)(CO)[C@@H]8CC[C@@]7(C)[C@]5(C)CC6)OCC(O)C4O)C(O)C3O)C2O)C(O)C(O)C1O (some centres undefined) | 42.8 | 32 | 48.6 | 37.5 | 40.2 | 39.8 | 42.3 | 57.2 | 50.2 | 40.6 | 37 | 38 | 38.3 | – | – | – | – | – | – | –
O=[N+]([O-])c1ccc(-c2csc(N=Nc3c(O)[nH]c4ccccc34)n2)cc1 | 39.3 | 39.4 | 22.9 | > 100 | > 100 | > 100 | > 100 | > 100 | > 100 | > 100 | > 100 | > 100 | 86.2 | – | – | – | – | – | – | –
C(=N\c1nc2cc3sc(/N=C/c4ccccc4)nc3cc2s1)/c1ccccc1 | > 100 | > 100 | > 100 | > 100 | > 100 | > 100 | > 100 | > 100 | > 74 | > 100 | > 100 | > 100 | > 100 | – | – | – | – | – | – | –
CCOC(=O)C(NC(=O)c1cccc(Cl)c1)(Nc1ccc(S(=O)(=O)Nc2cc(C)on2)cc1)C(F)(F)F (centres undefined) | > 100 | > 100 | > 100 | > 100 | > 100 | > 100 | > 100 | > 100 | > 100 | > 100 | > 100 | > 100 | > 100 | – | – | – | – | – | – | –
Cc1nc(-c2ccccc2)cn2c1nc1ccccc12 | 53 | 62.1 | 37.1 | > 100 | > 100 | 28.6 | 43.5 | > 70.9 | 41.1 | 69.9 | > 82.3 | 50.9 | 69.5 | – | – | – | – | – | – | –
Cc1cc(N(CCC#N)CCC#N)ccc1/C(N=Nc1ccc([N+](=O)[O-])cc1)=N\NC(=O)c1cc(Cl)ccc1O | > 100 | > 100 | > 100 | > 100 | > 100 | > 100 | > 100 | 88.1 | 93 | 38.2 | > 100 | > 100 | > 100 | – | – | – | – | – | – | –
CCn1c(SCC(=O)N/N=C2\SCC(=O)N2c2ccc(C)cc2)nc2ccccc2c1=O | 33.5 | 33.2 | 57.4 | 75 | 36.3 | 50 | 53.4 | 35.9 | 64.8 | 62.9 | 35.3 | 35 | 54.2 | – | – | – | – | – | – | –
O=c1[nH]c(Nc2ccc(Br)c(C(F)(F)F)c2)nc2nc[nH]c12 | > 100 | > 100 | > 100 | > 100 | > 100 | 71.8 | > 100 | > 100 | > 100 | 87 | > 100 | > 100 | > 100 | – | – | – | – | – | – | –
CN(O)C(=O)CCC(NC(=O)CCC(N)C(=O)O)C(=O)NCC(=O)O (centres undefined) | > 100 | > 100 | > 100 | > 100 | > 100 | > 100 | > 100 | > 100 | > 100 | > 100 | > 100 | > 100 | > 100 | – | – | – | – | – | – | –
COc1ccc(/[N+]([O-])=C/c2ccc(OC(=S)S)c(OC)c2)cc1 | > 100 | 66.7 | > 100 | > 100 | > 100 | 93.2 | > 100 | > 100 | > 100 | > 100 | > 100 | > 100 | > 100 | – | – | – | – | – | – | –
Fc1cc(C2=Nn3c(COc4ccccc4Cl)nnc3S/C2=C\c2ccc(Cl)cc2)c(Cl)cc1Cl | > 100 | 31.5 | > 100 | 81.7 | > 100 | 19 | 6.23 | 26.1 | > 100 | 62 | > 100 | 26.5 | 68.9 | – | – | – | – | – | – | –
CCOC(=O)CNC(=O)C(CCC(=O)N(C)O)NC(=O)CCC(N)C(=O)O (centres undefined) | > 100 | > 100 | > 100 | > 100 | > 100 | > 100 | > 100 | > 100 | > 100 | > 100 | > 100 | > 100 | > 100 | – | – | – | – | – | – | –
C=C1C(C(=O)OC)[C@H]1C(=O)OC (some centres undefined) | > 100 | > 100 | > 100 | > 100 | > 100 | > 100 | > 100 | > 100 | > 100 | > 100 | > 100 | > 100 | > 100 | – | – | – | – | – | – | –
COc1c2c(c3c(c1OC)c(=O)c1ccccc1n3C)OCO2 | > 100 | > 100 | > 100 | > 100 | > 100 | > 100 | > 100 | > 100 | > 100 | > 100 | > 100 | > 100 | > 100 | – | – | – | – | – | – | –
CC(NC1=NCCO1)c1ccccc1Cl (centres undefined) | > 100 | > 100 | > 100 | > 100 | > 100 | > 100 | > 100 | > 100 | > 100 | > 100 | > 100 | > 100 | > 100 | – | – | – | – | – | – | –
Cc1c(NC(=S)Nc2ccc([N+](=O)[O-])cc2)c(=O)n(-c2ccccc2)n1C | > 100 | > 100 | > 100 | > 100 | > 100 | > 100 | > 100 | > 100 | > 100 | > 100 | > 100 | > 100 | > 100 | – | – | – | – | – | – | –
O=c1[nH]c(NCc2cccnc2)nc2nc[nH]c12 | > 100 | > 100 | > 100 | > 100 | > 100 | > 100 | > 100 | > 100 | > 100 | > 100 | > 100 | > 100 | > 100 | – | – | – | – | – | – | –
COc1ccc2c(c1)c1c3c(ccc4ncn2c43)N(CCO)CCN=1 | 0.347 | 2.51 | 0.484 | 1.59 | 0.511 | 0.403 | 0.808 | 0.214 | 0.522 | 0.648 | 1.39 | 1.06 | 0.464 | – | – | – | – | – | – | –
CC(C)(C)c1cc(/C=C(\C#N)C2=NCCO2)cc(C(C)(C)C)c1O | 12.2 | > 35.5 | 6.63 | > 40.9 | 12.4 | 5.62 | 16.6 | 11.9 | 20.1 | 7.51 | 7.89 | 14.7 | 7.37 | – | – | – | – | – | – | –
COc1ccc(S(=O)(=O)Nc2ccc(-c3csc(N4C(=O)/C(=C/c5ccccc5[N+](=O)[O-])N=C4c4ccccc4)n3)cc2)cc1Cl | > 100 | > 100 | > 100 | > 100 | 78.5 | > 100 | > 100 | > 100 | > 100 | > 100 | > 100 | > 100 | > 100 | – | – | – | – | – | – | –
O=S(=O)(O)c1ccc(N=Nc2ccccc2)cc1 | > 100 | > 100 | > 100 | > 100 | > 100 | > 100 | > 100 | > 100 | > 100 | > 100 | > 100 | > 100 | > 100 | – | – | – | – | – | – | –
C#CC1(O)CCC2[C@@H]3CCc4cc(Oc5nc(F)nc(-c6c(C)c(C(=O)OCC)n7ccccc67)n5)ccc4C3CC[C@@]21C (some centres undefined) | > 100 | > 100 | > 100 | > 100 | > 100 | > 100 | > 100 | > 100 | > 100 | > 100 | > 100 | > 100 | > 100 | – | – | – | – | – | – | –
